According to PMC8079033, “Design, synthesis, anticancer evaluation, and molecular modelling studies of novel tolmetin derivatives as potential VEGFR-2 inhibitors and apoptosis inducers” (Journal of Enzyme Inhibition and Medicinal Chemistry, 2021):

Tests used:
786-0 = assay: NCI 60-cell line one-dose antiproliferative screen (SRB); assay type: cell-based; conditions: Homo sapiens, read-out: growth inhibition % (GI%)
Method in brief: (§1)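 Compounds tested at a single 10 µM dose for 48 h at 37 °C after 24 h pre-incubation; cells TCA-fixed and stained with sulforhodamine B, absorbance at 515 nm. Percent growth calculated relative to no-compound control and time-zero cell count, reported as growth inhibition percentage.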

A498 = assay: as above; assay type: cell-based; conditions: Homo sapiens, read-out: growth inhibition % (GI%)
Method in brief: as §1

A549/ATCC = assay: as above; assay type: cell-based; conditions: Homo sapiens, read-out: growth inhibition % (GI%)
Method in brief: as §1

ACHN = assay: as above; assay type: cell-based; conditions: Homo sapiens, read-out: growth inhibition % (GI%)
Method in brief: as §1

BT-5 = assay: as above; assay type: cell-based; conditions: Homo sapiens, read-out: growth inhibition % (GI%)
Method in brief: as §1

CAKI-1 = assay: as above; assay type: cell-based; conditions: Homo sapiens, read-out: growth inhibition % (GI%)
Method in brief: as §1

EKVX = assay: as above; assay type: cell-based; conditions: Homo sapiens, read-out: growth inhibition % (GI%)
Method in brief: as §1

HCT-116 = assay: as above; assay type: cell-based; conditions: Homo sapiens, read-out: growth inhibition % (GI%)
Method in brief: as §1

HCT-15 = assay: as above; assay type: cell-based; conditions: Homo sapiens, read-out: growth inhibition % (GI%)
Method in brief: as §1

HL-60 (TB) = assay: as above; assay type: cell-based; conditions: Homo sapiens, read-out: growth inhibition % (GI%)
Method in brief: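 A 48 h, 10 µM exposure is scored by SRB protein dye. Percent growth accounts for starting cell density, allowing lethality as well as cytostasis to be detected.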

HOP-62 = assay: as above; assay type: cell-based; conditions: Homo sapiens, read-out: growth inhibition % (GI%)
Method in brief: as §1

HS 578 T = assay: as above; assay type: cell-based; conditions: Homo sapiens, read-out: growth inhibition % (GI%)
Method in brief: as §1

IGROV1 = assay: as above; assay type: cell-based; conditions: Homo sapiens, IGROV-1, read-out: growth inhibition % (GI%)
Method in brief: as §1

K-562 = assay: as above; assay type: cell-based; conditions: Homo sapiens, K562, read-out: growth inhibition % (GI%)
Method in brief: as §1

LOX IMVI = assay: as above; assay type: cell-based; conditions: Homo sapiens, read-out: growth inhibition % (GI%)
Method in brief: as §1

M14 = assay: as above; assay type: cell-based; conditions: Homo sapiens, read-out: growth inhibition % (GI%)
Method in brief: as §1

MCF7 = assay: as above; assay type: cell-based; conditions: Homo sapiens, read-out: growth inhibition % (GI%)
Method in brief: as §1

MDA-MB-231/ATCC = assay: as above; assay type: cell-based; conditions: Homo sapiens, read-out: growth inhibition % (GI%)
Method in brief: as §1

MDA-MB-435 = assay: as above; assay type: cell-based; conditions: Homo sapiens, read-out: growth inhibition % (GI%)
Method in brief: as §1

MDA-MB-468 = assay: as above; assay type: cell-based; conditions: Homo sapiens, read-out: growth inhibition % (GI%)
Method in brief: as §1

NCI-H226 = assay: as above; assay type: cell-based; conditions: Homo sapiens, read-out: growth inhibition % (GI%)
Method in brief: as §1

NCI-H23 = assay: as above; assay type: cell-based; conditions: Homo sapiens, read-out: growth inhibition % (GI%)
Method in brief: as §1

NCI-H522 = assay: as above; assay type: cell-based; conditions: Homo sapiens, read-out: growth inhibition % (GI%)
Method in brief: as §1

OVCAR-4 = assay: as above; assay type: cell-based; conditions: Homo sapiens, read-out: growth inhibition % (GI%)
Method in brief: as §1

OVCAR-5 = assay: as above; assay type: cell-based; conditions: Homo sapiens, read-out: growth inhibition % (GI%)
Method in brief: as §1

OVCAR-8 = assay: as above; assay type: cell-based; conditions: Homo sapiens, read-out: growth inhibition % (GI%)
Method in brief: as §1

SF-268 = assay: as above; assay type: cell-based; conditions: Homo sapiens, read-out: growth inhibition % (GI%)
Method in brief: as §1

SF-295 = assay: as above; assay type: cell-based; conditions: Homo sapiens, read-out: growth inhibition % (GI%)
Method in brief: as §1

SF-539 = assay: as above; assay type: cell-based; conditions: Homo sapiens, read-out: growth inhibition % (GI%)
Method in brief: as §1

SK-MEL-5 = assay: as above; assay type: cell-based; conditions: Homo sapiens, read-out: growth inhibition % (GI%)
Method in brief: as §1

SN 12 C = assay: as above; assay type: cell-based; conditions: Homo sapiens, SN12C, read-out: growth inhibition % (GI%)
Method in brief: as §1

SNB-19 = assay: as above; assay type: cell-based; conditions: Homo sapiens, read-out: growth inhibition % (GI%)
Method in brief: as §1

SNB-75 = assay: as above; assay type: cell-based; conditions: Homo sapiens, read-out: growth inhibition % (GI%)
Method in brief: as §1

SR = assay: as above; assay type: cell-based; conditions: Homo sapiens, read-out: growth inhibition % (GI%)
Method in brief: as §1

SW-620 = assay: as above; assay type: cell-based; conditions: Homo sapiens, read-out: growth inhibition % (GI%)
Method in brief: as §1

T-47D = assay: as above; assay type: cell-based; conditions: Homo sapiens, T47D, read-out: growth inhibition % (GI%)
Method in brief: as §1

TK-10 = assay: as above; assay type: cell-based; conditions: Homo sapiens, read-out: growth inhibition % (GI%)
Method in brief: as §1

U251 = assay: as above; assay type: cell-based; conditions: Homo sapiens, U-251, read-out: growth inhibition % (GI%)
Method in brief: as §1

UACC-257 = assay: as above; assay type: cell-based; conditions: Homo sapiens, read-out: growth inhibition % (GI%)
Method in brief: as §1

UACC-62 = assay: as above; assay type: cell-based; conditions: Homo sapiens, read-out: growth inhibition % (GI%)
Method in brief: as §1

UO-31 = assay: as above; assay type: cell-based; conditions: Homo sapiens, read-out: growth inhibition % (GI%)
Method in brief: as §1

[1] = test system: panel of 60 tumour cell lines; assay: NCI 60-cell line one-dose screen, summary over the panel; assay type: cell-based, human; conditions: 10 µM
Protocol: Anticancer activity screening of the newly synthesised compounds was measured in vitro utilising 60 different human tumour cell lines provided by US National Cancer Institute according to previously reported standard procedure[41–43] as follows: Cells are inoculated into 96-well microtiter plates in 100 ml. After cell inoculation, the microtiter plates are incubated at 37 °C, 5% CO2, 95% air, and 100% relative humidity for 24 h prior to addition of experimental compounds. After 24 h, two plates of each cell line are fixed in situ with TCA, to represent a measurement of the cell population for each cell line at the time of compound addition (Tz). Experimental compounds are solubilised in dimethyl sulfoxide at 400-fold the desired final maximum test concentration and stored frozen prior to use. At the time of compound addition, an aliquot of frozen concentrate is thawed and diluted to twice the desired final maximum test concentration with a complete medium containing […] gentamicin. Aliquots of […] of the compounds dilutions are added to the appropriate microtiter wells already containing 100 ml of medium, resulting in the required final compound concentration. Following compound addition, the plates are incubated for an additional 48 h at 37 °C, 5% CO2, 95% air, and 100% relative humidity. […] The bound stain is subsequently solubilised with a 10 mM trizma base, and the absorbance is read on an automated plate reader at a wavelength of 515 nm. […] Using the absorbance measurements [time zero, (Tz), control growth, (C), and test growth in the presence of compound (Ti)], the percentage growth is calculated for each compound. […]
Fifteen newly synthesised compounds were tested for their in vitro antiproliferative activity by the National Cancer Institute (NCI), Maryland, USA[50], under the Developmental Therapeutic Program (DTP)[41]^,[43]^,[51]^,[52]. The tested compounds were evaluated at a concentration of 10 µM on a panel of 60 tumour cell lines representing leukaemia and non-small cell lung, colon, CNS, melanoma, ovarian, renal, prostate, and breast cancers. […]

SMILES: Cc1ccc(C(=O)c2ccc(CC(=O)NN=Cc3ccc4c(c3)OCO4)n2C)cc1 [Compound 5d, N′-(Benzo[d][1,3]dioxol-5-ylmethylene)-2–(1-methyl-5–(4-methylbenzoyl)-1H-pyrrol-2-yl)acetohydrazide]
- inhibition at 10 µM (786-0): < 10%
- inhibition at 10 µM (A498): 13.1%
- inhibition at 10 µM (A549/ATCC): < 10%
- inhibition at 10 µM (ACHN): < 10%
- inhibition at 10 µM (BT-5): < 10%
- inhibition at 10 µM (CAKI-1): < 10%
- inhibition at 10 µM (EKVX): < 10%
- inhibition at 10 µM (HCT-116): < 10%
- inhibition at 10 µM (HCT-15): < 10%
- inhibition at 10 µM (HL-60 (TB)): < 10%
- inhibition at 10 µM (HOP-62): < 10%
- inhibition at 10 µM (HS 578 T): < 10%
- inhibition at 10 µM (IGROV1): < 10%
- inhibition at 10 µM (K-562): < 10%
- inhibition at 10 µM (LOX IMVI): < 10%
- inhibition at 10 µM (M14): < 10%
- inhibition at 10 µM (MCF7): < 10%
- inhibition at 10 µM (MDA-MB-231/ATCC): < 10%
- inhibition at 10 µM (MDA-MB-435): < 10%
- inhibition at 10 µM (MDA-MB-468): < 10%
- inhibition at 10 µM (NCI-H226): < 10%
- inhibition at 10 µM (NCI-H23): < 10%
- inhibition at 10 µM (NCI-H522): 12.4%
- inhibition at 10 µM (OVCAR-4): < 10%
- inhibition at 10 µM (OVCAR-5): < 10%
- inhibition at 10 µM (OVCAR-8): < 10%
- inhibition at 10 µM (SF-268): < 10%
- inhibition at 10 µM (SF-295): < 10%
- inhibition at 10 µM (SF-539): < 10%
- inhibition at 10 µM (SK-MEL-5): < 10%
- inhibition at 10 µM (SN 12 C): < 10%
- inhibition at 10 µM (SNB-19): < 10%
- inhibition at 10 µM (SNB-75): < 10%
- inhibition at 10 µM (SR): < 10%
- inhibition at 10 µM (SW-620): < 10%
- inhibition at 10 µM (T-47D): 15.6%
- inhibition at 10 µM (TK-10): < 10%
- inhibition at 10 µM (U251): < 10%
- inhibition at 10 µM (UACC-257): < 10%
- inhibition at 10 µM (UACC-62): < 10%
- inhibition at 10 µM (UO-31): 22.2%
- antiproliferative activity over the panel (in words) [1]: inactive against most investigated cell lines
